Measured values from patent US20260022143A1, “Cyclic Peptide Inhibitors of IL-23” (JANSSEN PHARMACEUTICA NV, priority 2022, published 2026).
Starred links: 1 amine or outer side, 2 acyl side, 3 side chain; linkers in the order of their positions; H or OH if unused. Positions of bridges follow the written chain, without caps; N, C: chain ends. Non-standard residues stand in square brackets, D forms with d. Residues, ends and D or L forms follow the SMILES beside them. Groups on a side chain read outwards from the residue. *: point of attachment. X51 = C[N+](C)(C)CCCc1cn(-c2ccc(C[C@H](N[*:1])C(=O)[*:2])cc2)nn1; Me3N+(CH2)2O(CH2)2O(CH2)2CO = C[N+](C)(C)CCOCCOCCC(=O)*; CH2CH2OCH2CH2OCH2CH2NMe3+ = C[N+](C)(C)CCOCCOCC*; NH(CH2CH2O)2CH2CH2NMe3+ = C[N+](C)(C)CCOCCOCCN*; Trp(7-Me) = Cc1cccc2c(C[C@H](N)C(=O)O)c[nH]c12; X20 = C[N+](C)(C)CC[C@H](N[*:1])C(=O)[*:2]; γGlu = O=C(O)[C@H](CCC(=O)[*:2])N[*:1]; 2Nal = N[C@@H](Cc1ccc2ccccc2c1)C(=O)O; AEF = NCCOc1ccc(C[C@H](N)C(=O)O)cc1; dNMeY = CN[C@H](Cc1ccc(O)cc1)C(=O)O; 3Pal = N[C@@H](Cc1cccnc1)C(=O)O; Myristoyl = CCCCCCCCCCCCCC(=O)*; Lys(Me) = CNCCCC[C@H](N)C(=O)O; X53 = C[N+]1(CCOCCOCC*)CCOCC1; Pen = CC(C)(S)[C@H](N)C(=O)O; αMeK = C[C@](N)(CCCCN)C(=O)O; X85 = C[N+](C)(C)CCO/N=C/C*; Thp = NC1(C(=O)O)CCOCC1; X3 = C[N+](C)(C)CCCCC*; X76 = N=C(N)NCCOCCOCC*; AEEA = NCCOCCOCC(=O)O; Sar = CNCC(=O)O

Experiment: Exposed Polar Surface Area (EPSA)
Type: physicochemical
Conditions: SFC on Chirex 3014 column; sample 1 mM DMSO stock; read-out: EPSA
Procedure, shortened: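 Compounds, as 1 mM DMSO stock, were injected in duplicate onto an SFC Chirex 3014 column at 35 °C and eluted with a CO2/methanol (20 mM ammonium formate) gradient. EPSA values in Å^2 were derived from retention times using a linear fit to eight calibration standards, reinjected every 20 compounds.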

With `CC(=O)NCCCC[C@@H]1NC(=O)[C@H](Cc2c[nH]c3c(C)cccc23)NC(=O)[C@H]([C@@H](C)O)NC(=O)[C@H](CC(N)=O)NC(=O)[C@@H](NC(C)=O)C(C)(C)SSC(C)(C)[C@@H](C(=O)N[C@@H](Cc2ccc(OCCOCCOCC[N+]3(C)CCOCC3)cc2)C(=O)N[C@@H](Cc2ccc3ccccc3c2)C(=O)NC2(C(=O)N[C@@H](CCC(=O)O)C(=O)N[C@@H](CC(N)=O)C(=O)N[C@@H](Cc3cccnc3)C(=O)N(C)CC(N)=O)CCOCC2)NC1=O` [compound 432] (Ac-[Pen]NT[Trp(7-Me)]K(Ac)[Pen]Y(X53)[2Nal][Thp]EN[3Pal][Sar]-NH2; disulfide 1-6 (inferred)) the EPSA was 167 A^2.
For `CC(=O)NCCCC[C@@H]1NC(=O)[C@H](Cc2c[nH]c3c(C)cccc23)NC(=O)[C@H]([C@@H](C)O)NC(=O)[C@H](CC(N)=O)NC(=O)[C@@H](NC(C)=O)C(C)(C)SSC(C)(C)[C@@H](C(=O)N[C@@H](Cc2ccc(OCCN)cc2)C(=O)N[C@@H](Cc2ccc3ccccc3c2)C(=O)N[C@@](C)(CCCCN)C(=O)N[C@@H](CCCCNC(C)=O)C(=O)N[C@@H](CC(N)=O)C(=O)N[C@H](Cc2ccccc2)C(=O)N(C)[C@H](Cc2ccc(O)cc2)C(N)=O)NC1=O` [compound 20, MeCO-Pen(3)-N-T-7MeW-K(Ac)-Pen(3)-AEF-2Nal-aMeK-K(Ac)-N-f-NMeDTyr-CONH2] (Ac-[Pen]NT[Trp(7-Me)]K(Ac)[Pen][AEF][2Nal][αMeK]K(Ac)N[dF][dNMeY]-NH2; disulfide 1-6 (inferred)), the EPSA was 168 A^2.
With `CCCCCCCCCCCCCC(=O)N[C@@H](CCC(=O)NCCOCCOCC(=O)NCCOCCOCC(=O)NCCCC[C@H](NC(=O)C1(NC(=O)[C@H](Cc2ccc3ccccc3c2)NC(=O)[C@H](Cc2ccc(OCCCCC[N+](C)(C)C)cc2)NC(=O)[C@H]2NC(=O)[C@H](CCCCN(C)C(C)=O)NC(=O)[C@H](Cc3c[nH]c4c(C)cccc34)NC(=O)[C@H]([C@@H](C)O)NC(=O)[C@H](CC(=O)N(C)C)NC(=O)[C@@H](NC(=O)CCOCCOCC[N+](C)(C)C)C(C)(C)SSC2(C)C)CCOCC1)C(=O)N[C@@H](CC(N)=O)C(=O)N[C@@H](Cc1cccnc1)C(=O)N(C)CC(=O)N(C)C)C(=O)O` [compound 402, cPEG3aCO-Pen(3)-N(N(Me)2)-T-7MeW-K(NMeAc)-Pen(3)-TMAPF-2Nal-THP-K(PEG2PEG2gEC14)-N-3Pya-Sar-CON(Me)2] ({Me3N+(CH2)2O(CH2)2O(CH2)2CO}-[Pen]D(NMe2)T[Trp(7-Me)][Lys(Me)](Ac)[Pen]Y(X3)[2Nal][Thp]K([AEEA-AEEA-γGlu-Myristoyl])N[3Pal][Sar]-NMe2; disulfide 1-6) the EPSA was 156 A^2.
With `CC(=O)N(C)CCCC[C@@H]1NC(=O)[C@H](Cc2c[nH]c3c(C)cccc23)NC(=O)[C@H]([C@@H](C)O)NC(=O)[C@H](CC(=O)N(C)C)NC(=O)[C@@H](NC(=O)CCOCCOCC[N+](C)(C)C)C(C)(C)SSC(C)(C)[C@@H](C(=O)N[C@@H](Cc2ccc(OCC3CCC([N+](C)(C)C)CC3)cc2)C(=O)N[C@@H](Cc2ccc3ccccc3c2)C(=O)NC2(C(=O)N[C@@H](CCCCN(C)C(C)=O)C(=O)N[C@@H](CC(N)=O)C(=O)N[C@@H](Cc3cccnc3)C(=O)N(C)CC(=O)N(C)C)CCOCC2)NC1=O` (single isomer, unassigned) [compound 210, cPEG3aCO-Pen(3)-N(N(Me)2)-T-7MeW-K(NMeAc)-Pen(3)-ACHMF-2Nal-THP-K(NMeAc)-N-3Pya-Sar-CON(Me)2] the EPSA was 145 A^2.
In the case of `CC(=O)NCCCC[C@@H]1NC(=O)[C@H](Cc2c[nH]c3c(C)cccc23)NC(=O)[C@H]([C@@H](C)O)NC(=O)[C@H](CC(=O)N(C)C)NC(=O)[C@@H](NC(C)=O)C(C)(C)SSC(C)(C)[C@@H](C(=O)N[C@@H](Cc2ccc(OCCN)cc2)C(=O)N[C@@H](Cc2ccc3ccccc3c2)C(=O)NC2(C(=O)N[C@@H](CCCCNC(C)=O)C(=O)N[C@@H](CC(N)=O)C(=O)N[C@@H](Cc3cccnc3)C(=O)N(C)CC(N)=O)CCOCC2)NC1=O` [compound 279, MeCO-Pen(3)-N(N(Me)2)-T-7MeW-K(Ac)-Pen(3)-AEF-2Nal-THP-K(Ac)-N-3Pya-Sar-CONH2] (Ac-[Pen]D(NMe2)T[Trp(7-Me)]K(Ac)[Pen][AEF][2Nal][Thp]K(Ac)N[3Pal][Sar]-NH2; disulfide 1-6), the EPSA is reported as 163 A^2.
With `CC(=O)N[C@@H]1C(=O)N[C@@H](CC(=O)N(C)C)C(=O)N[C@@H]([C@@H](C)O)C(=O)N[C@@H](Cc2c[nH]c3c(C)cccc23)C(=O)N[C@@H](CCCCN(C)C(C)=O)C(=O)N[C@H](C(=O)N[C@@H](Cc2ccc(OCCCCC[N+](C)(C)C)cc2)C(=O)N[C@@H](Cc2ccc3ccccc3c2)C(=O)NC2(C(=O)N[C@@H](CCCCN(C)C(C)=O)C(=O)N[C@@H](CC(N)=O)C(=O)N[C@@H](Cc3cccnc3)C(=O)N(C)CC(=O)NCCOCCOCC[N+](C)(C)C)CCOCC2)C(C)(C)SSC1(C)C` [compound 219, MeCO-Pen(3)-N(N(Me)2)-T-7MeW-K(NMeAc)-Pen(3)-TMAPF-2Nal-THP-K(NMeAc)-N-3Pya-Sar-CO(NHPEG3a)] (Ac-[Pen]D(NMe2)T[Trp(7-Me)][Lys(Me)](Ac)[Pen]Y(X3)[2Nal][Thp][Lys(Me)](Ac)N[3Pal][Sar]-{NH(CH2CH2O)2CH2CH2NMe3+}; disulfide 1-6 (inferred)) the EPSA was 139 A^2.
`COCCOCCOCCOCCOCCOCCOCCOCCNC(=O)CN(C)C(=O)[C@H](Cc1cccnc1)NC(=O)[C@H](CC(N)=O)NC(=O)[C@H](CCC(=O)O)NC(=O)C1(NC(=O)[C@H](Cc2ccc3ccccc3c2)NC(=O)[C@H](Cc2ccc(OCCN)cc2)NC(=O)[C@H]2NC(=O)[C@H](CCCCNC(C)=O)NC(=O)[C@H](Cc3c[nH]c4c(C)cccc34)NC(=O)[C@H]([C@@H](C)O)NC(=O)[C@H](CC(N)=O)NC(=O)[C@@H](NC(C)=O)C(C)(C)SSC2(C)C)CCOCC1` [compound 132] showed an EPSA of 163 A^2.
`CC(=O)N(C)CCCC[C@@H]1NC(=O)[C@H](Cc2c[nH]c3c(C)cccc23)NC(=O)[C@H]([C@@H](C)O)NC(=O)[C@H](CC(=O)N(C)C)NC(=O)[C@@H](NC(=O)CCOCCOCC[N+](C)(C)C)C(C)(C)SSC(C)(C)[C@@H](C(=O)N[C@@H](Cc2ccc(OC/C=N/OCC[N+](C)(C)C)cc2)C(=O)N[C@@H](Cc2ccc3ccccc3c2)C(=O)NC2(C(=O)N[C@@H](CCCCN(C)C(C)=O)C(=O)N[C@@H](CC(N)=O)C(=O)N[C@@H](Cc3cccnc3)C(=O)N(C)CC(=O)N(C)C)CCOCC2)NC1=O` [compound 305, cPEG3aCO-Pen(3)-N(N(Me)2)-T-7MeW-K(NMeAc)-Pen(3)-Y(OEOXlMECh)-2Nal-THP-K(NMeAc)-N-3Pya-Sar-CON(Me)2] ({Me3N+(CH2)2O(CH2)2O(CH2)2CO}-[Pen]D(NMe2)T[Trp(7-Me)][Lys(Me)](Ac)[Pen]Y(X85)[2Nal][Thp][Lys(Me)](Ac)N[3Pal][Sar]-NMe2; disulfide 1-6 (inferred)) showed an EPSA of 153 A^2.
Work on `CC(=O)N(C)CCCC[C@@H]1NC(=O)[C@H](Cc2c[nH]c3c(C)cccc23)NC(=O)[C@H]([C@@H](C)O)NC(=O)[C@H](CC(=O)N(C)C)NC(=O)[C@@H](NC(=O)CCOCCOCC[N+](C)(C)C)C(C)(C)SSC(C)(C)[C@@H](C(=O)N[C@@H](Cc2ccc(-n3cc(CCC[N+](C)(C)C)nn3)cc2)C(=O)N[C@@H](Cc2ccc3ccccc3c2)C(=O)NC2(C(=O)N[C@@H](CCCCN(C)C(C)=O)C(=O)N[C@@H](CC(N)=O)C(=O)N[C@@H](Cc3cccnc3)C(=O)N(C)CC(=O)N(C)C)CCOCC2)NC1=O` [compound 334, cPEG3aCO-Pen(3)-N(N(Me)2)-T-7MeW-K(NMeAc)-Pen(3)-F(4TzlTMA3)-2Nal-THP-K(NMeAc)-N-3Pya-Sar-CON(Me)2] ({Me3N+(CH2)2O(CH2)2O(CH2)2CO}-[Pen]D(NMe2)T[Trp(7-Me)][Lys(Me)](Ac)[Pen][X51][2Nal][Thp][Lys(Me)](Ac)N[3Pal][Sar]-NMe2; disulfide 1-6 (inferred)) yielded an EPSA of 155 A^2.
`CC(=O)N(C)CCCC[C@@H]1NC(=O)[C@H](Cc2c[nH]c3c(C)cccc23)NC(=O)[C@H]([C@@H](C)O)NC(=O)[C@H](CC(=O)N(C)C)NC(=O)[C@@H](NC(=O)CCOCCOCC[N+](C)(C)C)C(C)(C)SSC(C)(C)[C@@H](C(=O)N[C@@H](Cc2ccc(OCCN)cc2)C(=O)N[C@@H](Cc2ccc3ccccc3c2)C(=O)NC2(C(=O)N[C@@H](CCCCN(C)C(C)=O)C(=O)N[C@@H](CC(N)=O)C(=O)N[C@@H](Cc3cccnc3)C(=O)N(C)CC(N)=O)CCOCC2)NC1=O` [compound 169, cPEG3aCO-Pen(3)-N(N(Me)2)-T-7MeW-K(NMeAc)-Pen(3)-AEF-2Nal-THP-K(NMeAc)-N-3Pya-Sar-CONH2] ({Me3N+(CH2)2O(CH2)2O(CH2)2CO}-[Pen]D(NMe2)T[Trp(7-Me)][Lys(Me)](Ac)[Pen][AEF][2Nal][Thp][Lys(Me)](Ac)N[3Pal][Sar]-NH2; disulfide 1-6) gave an EPSA of 154 A^2.
Compound `CC(=O)N[C@@H]1C(=O)N[C@@H](CC[N+](C)(C)C)C(=O)N[C@@H]([C@@H](C)O)C(=O)N[C@@H](Cc2c[nH]c3c(C)cccc23)C(=O)N[C@@H](CCCCN(C)C(C)=O)C(=O)N[C@H](C(=O)N[C@@H](Cc2ccc(OCCOCCOCC[N+](C)(C)C)cc2)C(=O)N[C@@H](Cc2ccc3ccccc3c2)C(=O)NC2(C(=O)N[C@@H](CCCCN(C)C(C)=O)C(=O)N[C@@H](CC(N)=O)C(=O)N[C@@H](Cc3cccnc3)C(=O)N(C)CC(=O)N(C)C)CCOCC2)C(C)(C)SSC1(C)C` [compound 436] (Ac-[Pen][X20]T[Trp(7-Me)][Lys(Me)](Ac)[Pen]Y(CH2CH2OCH2CH2OCH2CH2NMe3+)[2Nal][Thp][Lys(Me)](Ac)N[3Pal][Sar]-NMe2; disulfide 1-6) has an EPSA of 149 A^2.
`CC(=O)N(C)CCCC[C@@H]1NC(=O)[C@H](Cc2c[nH]c3c(C)cccc23)NC(=O)[C@H]([C@@H](C)O)NC(=O)[C@H](CC(=O)N(C)C)NC(=O)[C@@H](NC(=O)CCOCCOCC[N+](C)(C)C)C(C)(C)SSC(C)(C)[C@@H](C(=O)N[C@@H](Cc2ccc(OCCOCCOCCNC(=N)N)cc2)C(=O)N[C@@H](Cc2ccc3ccccc3c2)C(=O)NC2(C(=O)N[C@@H](CCCCN(C)C(C)=O)C(=O)N[C@@H](CC(N)=O)C(=O)N[C@@H](Cc3cccnc3)C(=O)N(C)CC(=O)N(C)C)CCOCC2)NC1=O` [compound 405, cPEG3aCO-Pen(3)-N(N(Me)2)-T-7MeW-K(NMeAc)-Pen(3)-GPEG3F-2Nal-THP-K(NMeAc)-N-3Pya-Sar-CON(Me)2] ({Me3N+(CH2)2O(CH2)2O(CH2)2CO}-[Pen]D(NMe2)T[Trp(7-Me)][Lys(Me)](Ac)[Pen]Y(X76)[2Nal][Thp][Lys(Me)](Ac)N[3Pal][Sar]-NMe2; disulfide 1-6) gave an EPSA of 157 A^2.
